Results: patent US7858295B2, “Methods for prolonging survival of platelets using UDP-galactose” (Velico Medical, Inc., priority 2002, dated 2010)

Assays:
[1] = tested on: human platelets; test: FITC-lectin (WGA, S-WGA, RCA I) binding to chilled or room temperature platelets by flow cytometry; format: cell-based; conditions: alone
Procedure: We then investigated whether wheat germ agglutinin (WGA), a lectin with specificity towards the terminal sugar (GlcNAc), binds more effectively to chilled platelets than to room temperature platelets. Washed, chilled or room temperature platelets were incubated with 2 μg/ml of FITC coupled WGA or FITC coupled succinyl-WGA for 30 min at room temperature and analyzed by flow cytometry. FIGS. 9A and 9B show the dot plots after incubation with FITC-WGA of room temperature (RT) or chilled (Cold) human platelets.
To analyze whether removal of GlcNAc residues reduces the binding of WGA to the platelet surface, chilled and room temperature washed human platelets were treated with 100 U/ml β-Hex for 30 min at 37° C.

[2] = tested on: THP-1 cells; test: In vitro phagocytic assay: ingestion of CM-Orange-labeled chilled or room temperature human platelets by THP-1 phagocytes (flow cytometry); format: cell-based; conditions: for inhibitory effect on chilled platelet phagocytosis (in words) / % inhibition phagocytosis: chilled platelets; for inhibitory effect on chilled platelet phagocytosis (in words): various concentrations; for inhibitory effect on RT platelet phagocytosis (in words): room temperature platelets
Procedure: CR3 expression was monitored by flow cytometry using a PE-conjugated anti-human CD11b/Mac-1 mAb. Undifferentiated or differentiated THP-1 cells (2×10^6/ml) were plated onto 24-well plates and allowed to adhere for 45 minutes at 37° C. The adherent undifferentiated or differentiated macrophages were activated by the addition of 15 ng/ml PMA for 15 min. CM-range-labeled, chilled or room temperature platelets (10^7/well), previously subjected to different treatments were added to the undifferentiated or differentiated phagocytes in Ca^2+- and Mg^2+-containing HBSS and incubated for 30 min at 37° C. Following the incubation period, the phagocyte monolayer was washed with HBSS for 3 times, and adherent platelets were removed by treatment with 0.05% trypsin/0.53 mM EDTA in HBSS at 37° C. for 5 min followed by 5 mM EDTA at 4° C. to detach the macrophages for flow cytometric analysis of adhesion or ingestion of platelets (Brown et al., 2000). […] CM-Orange-labeled platelets incubated with macrophages were resolved from the phagocytes according to their forward and side scatter properties. The macrophages were gated, 10,000 events acquired for each sample, and data analyzed with CELLQuest software (Becton Dickenson).
To analyze the effects of monosaccharides on platelet phagocytosis, phagocytes (differentiated monocytic cell line THP-1) were incubated in monosaccharide solutions at various concentrations, and the chilled or room temperature platelets were added. Values in the Figures are means±SD of 3-5 experiments comparing percentages of orange-positive monocytes containing ingested platelets incubated with RT or chilled platelets).

## O=c1ccn([C@@H]2O[C@H](COP(=O)(O)OP(=O)(O)O)[C@@H](O)[C@H]2O)c(=O)[nH]1 [UDP]
[1]
  effect on S-WGA or RCA I binding to chilled or room temperature human platelets: no effect

## CO[C@@H]1O[C@H](CO)[C@@H](O)[C@H](O)[C@@H]1O [Methyl-β-D-mannopyranoside]
[2]
  inhibitory effect on chilled platelet phagocytosis (in words): no inhibitory effect
  inhibitory effect on RT platelet phagocytosis (in words): no inhibitory effect

## CO[C@H]1O[C@H](CO)[C@@H](O)[C@H](O)[C@H]1O [Methyl-α-D-glucopyranoside]
[2]
  inhibitory effect on chilled platelet phagocytosis (in words): did not have an inhibitory effect

## O=C[C@@H](O)[C@@H](O)[C@H](O)[C@H](O)CO [D-(+)-mannose]
[2]
  inhibitory effect on chilled platelet phagocytosis (in words): no inhibitory effect
  inhibitory effect on RT platelet phagocytosis (in words): no inhibitory effect

## CO[C@H]1O[C@H](CO)[C@@H](O)[C@H](O)[C@@H]1O [Methyl-α-D-mannopyranoside]
[2]
  inhibitory effect on chilled platelet phagocytosis (in words): no inhibitory effect
  inhibitory effect on RT platelet phagocytosis (in words): no inhibitory effect

## CC(=O)N[C@@H]1[C@@H](O)[C@H](O)[C@@H](CO)O[C@H]1O [β-GlcNac]
[2]; 0.01 mM (10 μM) monosaccharide, listed as β-anomer of GlcNAc
  % inhibition phagocytosis: 80%
[2]
  inhibitory effect on chilled platelet phagocytosis (in words): strongly inhibited

## CC(=O)N[C@H]1C(O)O[C@H](CO)[C@@H](O)[C@@H]1O (stereo partly drawn) [GlcNac, N-acetyl-D-glucosamine]
[2]
  inhibitory effect on chilled platelet phagocytosis (in words): significantly inhibited

## O=C[C@H](O)[C@@H](O)[C@@H](O)[C@H](O)CO [D-(+)-galactose]
[2]; phagocytes incubated with 100 mM monosaccharide
  % inhibition phagocytosis: did not significantly inhibit

## COC1OC(CO)C(O)C(O)C1O [Methyl-β-D-gludopyranoside]
[2]
  inhibitory effect on chilled platelet phagocytosis (in words): dose-dependent manner
